Seven compounds from ChEMBL document CHEMBL2331530, “Novel 3-O-carbamoyl erythromycin A derivatives (carbamolides) with activity against resistant staphylococcal and streptococcal isolates” (2013) can be followed below.

What all share (assay type): functional
Assay [1] has as its system Staphylococcus epidermidis. The assay can be described thus: Antibacterial activity against macrolides, lincosamides, streptogramin B and methicillin-resistant Staphylococcus epidermidis 1105-00 assessed as growth inhibition.
For assay [2], the system named is Staphylococcus aureus. The assay can be described thus: Antibacterial activity against macrolides, lincosamides, streptogramin B and methicillin-resistant Staphylococcus aureus 1015-00 assessed as growth inhibition.
The subject of the next assay is Streptococcus pyogenes. The assay can be described thus: Antibacterial activity against macrolides, lincosamides, and streptogramin B-resistant Streptococcus pyogenes 1304-00 assessed as growth inhibition.
Assay [3] concerns Staphylococcus aureus. The assay can be described thus: Antibacterial activity against Staphylococcus aureus ATCC 29213 assessed as growth inhibition.
In assay [4] the test system is Staphylococcus aureus. The assay can be described thus: Antibacterial activity against methicillin-resistant Staphylococcus aureus 1281-07 harboring cfr gene assessed as growth inhibition.
Assay [5] concerns Staphylococcus aureus. Kind of assay: Antibacterial activity against methicillin-resistant Staphylococcus aureus 1279-07-USA300 assessed as growth inhibition.
The subject of another assay is Streptococcus pneumoniae. The assay can be described thus: Antibacterial activity against macrolides, lincosamides, and streptogramin B-resistant Streptococcus pneumoniae 1243-00 assessed as growth inhibition.
Assay [6] relates to Staphylococcus aureus. Kind of assay: Antibacterial activity against macrolides, lincosamides, streptogramin B and methicillin-resistant Staphylococcus aureus 1609-09 harboring cfr gene assessed as growth inhibition.
The subject of assay [7] is Staphylococcus aureus. Kind of assay: Antibacterial activity against methicillin-resistant Staphylococcus aureus 2111-10-USA300 harboring cfr gene assessed as growth inhibition.
Assay [8] deals with Staphylococcus aureus. The assay can be described thus: Antibacterial activity against methicillin-resistant Staphylococcus aureus 1279-07 harboring cfr gene assessed as growth inhibition.

For orientation: MIC means the smallest concentration in the dilution series that meets the test's criterion for growth inhibition.

Values after ≈ are worked out from the molar mass of the structure shown.

Consider `CC[C@H]1OC(=O)[C@H](C)[C@@H](OC(=O)N2CC(C)(C)C[C@@H]2c2ccc(Cl)cc2)[C@H](C)[C@@H](O[C@@H]2O[C@H](C)C[C@H](N(C)C)[C@H]2O)[C@](C)(OC)C[C@@H](C)C(=O)[C@H](C)[C@H]2NC(=O)O[C@@]21C`, for which the MIC in assay [1] is 64 µg/mL (≈ 75.3 µM); with Staphylococcus aureus [2], > 64 µg/mL; in the assay on Streptococcus pyogenes, 0.125 µg/mL (≈ 0.147 µM); with Staphylococcus aureus [3] it was 0.25 µg/mL (≈ 0.294 µM); in the assay with Staphylococcus aureus [4], 0.25 µg/mL (≈ 0.294 µM); in the assay on Staphylococcus aureus [5], 0.5 µg/mL (≈ 0.588 µM). Further, the minimum inhibitory concentration (MIC) was 0.125 µg/mL (≈ 0.147 µM) in the assay on Streptococcus pneumoniae, > 64 µg/mL in the assay with Staphylococcus aureus [6], 0.25 µg/mL (≈ 0.294 µM) in the assay on Staphylococcus aureus [7] and 0.25 µg/mL (≈ 0.294 µM) in the assay on Staphylococcus aureus [8].
Consider `CC[C@H]1OC(=O)[C@H](C)[C@@H](OC(=O)N2CCC[C@H]2c2ccccc2)[C@H](C)[C@@H](O[C@@H]2O[C@H](C)C[C@H](N(C)C)[C@H]2O)[C@](C)(OC)C[C@@H](C)C(=O)[C@H](C)[C@H]2NC(=O)O[C@@]21C`, for which the MIC in assay [1] was > 64 µg/mL; in the assay on Staphylococcus aureus [2], > 64 µg/mL; in the assay with Streptococcus pyogenes, > 64 µg/mL; with Staphylococcus aureus [3] it was 2 µg/mL (≈ 2.54 µM); in the assay on Staphylococcus aureus [4], 0.5 µg/mL (≈ 0.635 µM); in the assay on Staphylococcus aureus [5] it was > 64 µg/mL. Also, the MIC in the assay on Streptococcus pneumoniae is > 64 µg/mL; with Staphylococcus aureus [6] it was > 64 µg/mL; with Staphylococcus aureus [7], 0.5 µg/mL (≈ 0.635 µM); in the assay with Staphylococcus aureus [8], > 64 µg/mL.
For the compound `CC[C@H]1OC(=O)[C@H](C)[C@@H](OC(=O)N2CCC[C@@H]2c2ccccc2)[C@H](C)[C@@H](O[C@@H]2O[C@H](C)C[C@H](N(C)C)[C@H]2O)[C@](C)(OC)C[C@@H](C)C(=O)[C@H](C)[C@H]2NC(=O)O[C@@]21C`, the MIC in [1] was > 64 µg/mL; with Staphylococcus aureus [2], > 64 µg/mL; in the assay on Streptococcus pyogenes, > 64 µg/mL; with Staphylococcus aureus [3], 0.5 µg/mL (≈ 0.635 µM); in the assay with Staphylococcus aureus [4], 0.25 µg/mL (≈ 0.317 µM); in the assay with Staphylococcus aureus [5] it was > 64 µg/mL. The MIC in the assay with Streptococcus pneumoniae, in the assay on Staphylococcus aureus [6], in the assay on Staphylococcus aureus [7] and in the assay on Staphylococcus aureus [8] was > 64 µg/mL each time.
Turning to `CC[C@H]1OC(=O)[C@H](C)[C@@H](OC(=O)N2CCCC2)[C@H](C)[C@@H](O[C@@H]2O[C@H](C)C[C@H](N(C)C)[C@H]2O)[C@](C)(OC)C[C@@H](C)C(=O)[C@H](C)[C@H]2NC(=O)O[C@@]21C`, the MIC in [1] was found to be 1 µg/mL (≈ 1.4 µM); with Staphylococcus aureus [2] it was 4 µg/mL (≈ 5.62 µM); with Streptococcus pyogenes it was 0.5 µg/mL (≈ 0.702 µM); with Staphylococcus aureus [3] it was 4 µg/mL (≈ 5.62 µM); with Staphylococcus aureus [4], 32 µg/mL (≈ 45 µM); with Staphylococcus aureus [5], 2 µg/mL (≈ 2.81 µM). The MIC was 0.5 µg/mL (≈ 0.702 µM) in the assay with Streptococcus pneumoniae, 16 µg/mL (≈ 22.5 µM) in the assay with Staphylococcus aureus [6], 16 µg/mL (≈ 22.5 µM) with Staphylococcus aureus [7] and 16 µg/mL (≈ 22.5 µM) in the assay on Staphylococcus aureus [8].
`CC[C@H]1OC(=O)[C@H](C)[C@@H](OC(=O)N2CC(C)(C)C[C@@H]2c2cccc(Cl)c2Cl)[C@H](C)[C@@H](O[C@@H]2O[C@H](C)C[C@H](N(C)C)[C@H]2O)[C@](C)(OC)C[C@@H](C)C(=O)[C@H](C)[C@H]2NC(=O)O[C@@]21C`: the MIC worked out at 16 µg/mL (≈ 18.1 µM) in assay [1]; 32 µg/mL (≈ 36.2 µM) in the assay with Staphylococcus aureus [2]; 1 µg/mL (≈ 1.13 µM) with Streptococcus pyogenes; 0.5 µg/mL (≈ 0.565 µM) in the assay on Staphylococcus aureus [3]; 0.25 µg/mL (≈ 0.283 µM) in the assay on Staphylococcus aureus [4]; 2 µg/mL (≈ 2.26 µM) in the assay on Staphylococcus aureus [5]. Further, the minimal inhibitory concentration (MIC) worked out at 1 µg/mL (≈ 1.13 µM) with Streptococcus pneumoniae, 64 µg/mL (≈ 72.3 µM) with Staphylococcus aureus [6], 0.5 µg/mL (≈ 0.565 µM) in the assay on Staphylococcus aureus [7] and 0.5 µg/mL (≈ 0.565 µM) with Staphylococcus aureus [8].
With `CC[C@H]1OC(=O)[C@H](C)[C@@H](OC(=O)N2CC(C)(C)C[C@@H]2c2ccc(Cl)cc2Cl)[C@H](C)[C@@H](O[C@@H]2O[C@H](C)C[C@H](N(C)C)[C@H]2O)[C@](C)(OC)C[C@@H](C)C(=O)[C@H](C)[C@H]2NC(=O)O[C@@]21C`, the MIC in assay [1] was 8 µg/mL (≈ 9.04 µM); in the assay on Staphylococcus aureus [2] it was 32 µg/mL (≈ 36.2 µM); with Streptococcus pyogenes it was 0.03 µg/mL (≈ 0.0339 µM); with Staphylococcus aureus [3], 0.25 µg/mL (≈ 0.283 µM); in the assay on Staphylococcus aureus [4] it was 0.25 µg/mL (≈ 0.283 µM); with Staphylococcus aureus [5], 0.5 µg/mL (≈ 0.565 µM). For the same compound, the MIC in the assay on Streptococcus pneumoniae amounted to 0.015 µg/mL (≈ 0.017 µM); in the assay with Staphylococcus aureus [6] it was 64 µg/mL (≈ 72.3 µM); in the assay with Staphylococcus aureus [7], 0.25 µg/mL (≈ 0.283 µM); in the assay with Staphylococcus aureus [8], 0.25 µg/mL (≈ 0.283 µM).
With `CC[C@H]1OC(=O)[C@H](C)[C@@H](OC(=O)N2CC(C)(C)C[C@@H]2c2ccc(Cl)c(Cl)c2)[C@H](C)[C@@H](O[C@@H]2O[C@H](C)C[C@H](N(C)C)[C@H]2O)[C@](C)(OC)C[C@@H](C)C(=O)[C@H](C)[C@H]2NC(=O)O[C@@]21C`, the MIC in [1] was 64 µg/mL (≈ 72.3 µM); with Staphylococcus aureus [2] it was 64 µg/mL (≈ 72.3 µM); in the assay on Streptococcus pyogenes, 0.125 µg/mL (≈ 0.141 µM); in the assay on Staphylococcus aureus [3], 0.25 µg/mL (≈ 0.283 µM); in the assay with Staphylococcus aureus [4] it was 0.25 µg/mL (≈ 0.283 µM); in the assay on Staphylococcus aureus [5] it was 2 µg/mL (≈ 2.26 µM). In addition, the MIC in the assay on Streptococcus pneumoniae is 0.125 µg/mL (≈ 0.141 µM); in the assay on Staphylococcus aureus [6], 64 µg/mL (≈ 72.3 µM); in the assay with Staphylococcus aureus [7], 0.25 µg/mL (≈ 0.283 µM); in the assay with Staphylococcus aureus [8], 0.25 µg/mL (≈ 0.283 µM).
